Values quoted from earlier work as cited in PMC3964610 (Methods in molecular biology (Clifton, N.J.), 2012).

Conditions: I.P. 10 mg/kg, male Swiss Albino mice, plasma; ref [17]

AUC: 5718 ng·h/mL | Cmax: 5121 ng/mL | Tmax: 4.8 min
SMILES: CCC(=O)N1CCN(c2ccc(-n3c(=O)ccc4cnc5ccc(-c6cnc7ccccc7c6)cc5c43)cc2C(F)(F)F)CC1 [Torin1, 1-(4-(4-propionylpiperazin-1-yl)-3-(trifluoromethyl)phenyl)-9-(quinolin-3-yl)benzo[h][1,6]naphthyridin-2(1H)-one]
